Assay results as given in patent US20240374631A1, “A COMPOSITION FOR IMPROVING GUT MICROBIOTA, BEHAVIOURAL PATTERN, ALPHA-SYNUCLEIN LEVELS, SLEEP PATTERN AND/OR SERUM MELATONIN” (GN Corporation Co Ltd, priority 2021, published 2024).

System: gut microbiota
Test: Gut microbiome analysis (16S rRNA sequencing of fecal samples) in STAM model of NASH
Format: in vivo, C57BL/6J mice
Settings: post-intervention
From the text: The study is reported in accordance with Animal Research: Reporting of In Vivo Experiments (ARRIVE) guidelines. C57BL/6J mice were obtained from Japan SLC, Inc. (Japan). All animals used in this study were cared for under the following guidelines: Act on Welfare and Management of Animals (Ministry of the Environment, Japan, Act No. 105 of Oct. 1, 1973), standards relating to the care and management of laboratory animals and relief of pain (Notice No. 88 of the Ministry of the Environment, Japan, Apr. 28, 2006) and the guidelines for proper conduct of animal experiments (Science Council of Japan, Jun. 1, 2006). Protocol approvals were obtained from SMC Laboratories, Japan's IACUC (Study reference no: […] Mice were maintained in a specific pathogen-free (SPF) facility under controlled conditions of temperature (23±3° C.), humidity (50±20%), lighting (12-hour artificial light and dark cycles; light from 8:00 to 20:00) and air exchange. The STAM model of NASH was induced as previously described [D10]. Mice were given a single subcutaneous injection of 200 μg streptozotocin (STZ, Sigma-Aldrich, USA) solution 2 days after birth and fed with a high-fat diet (HFD, 57 kcal % fat, Cat #HFD32, CLEA Japan, Inc., Japan) from 4-9 weeks of age. All mice develop liver steatosis and diabetes and at […] mice had established steatohepatitis, histologically. Studygroups: There were five study groups, described below. Eight mice were included in each study group. Eight NASH mice were orally administered vehicle supplemented with AFO-202 Beta Glucan at a dose of 1 mg/kg in a volume of 5 mL/kg once daily from 6 to 9 weeks of age. Eight NASH mice were orally administered vehicle supplemented with Telmisartan at a dose of 10 mg/kg once daily from 6 to 9 weeks of age. Frequency: Fecal samples were collected at the 6 weeks of age (before administration) and 9 weeks of age (before sacrifice). Procedure: At 6 weeks of age, fecal samples were collected from each mouse by clean catch method. […] A sterile petri dish was placed on the bench. Gently massage the abdomen, position the bottom of mouse over a fresh petri dish, and collect 1-2 fecal pellets. At sacrifice, fecal samples were aseptically collected from cecum. The tubes with feces were placed on ice immediately. These tubes were snap frozen in liquid nitrogen and stored at -80° C. for shipping. In this analysis, the 16S rRNA sequence data acquired by the next-generation sequencer from the fecal […] was used to perform community analysis using the QIIME2 program for microbial community analysis. The raw read data in FASTQ format output from the next-generation sequencer was trimmed to remove adapter sequences and low QV regions that may be included in the data. Cutadapt was used to remove adapter sequences from DNA sequencing reads. Trimmomatic was used as read trimming tool for Illumina NGS data. The adapter sequence was trimmed using the adapter trimming program “cutadapt” if the Trimming of the region at the end of the read sequence overlapped the corresponding sequence by at least one base (mismatch tolerance: 20%). When reads containing N were present in at least one of Read1 and Read2, both Read1 and Read2 were removed. Trimming of low QV regions was performed on the read data after processing using the QV trimming program “Trimmomatic” under the following conditions. The window of 20 bases is slid from the 5' side, and the area where the average QV is less than 20 is trimmed. After trimming, only the reads with more than 50 bases remaining in both Read1 and Read2 were taken as output. The microbial community analysis based on 16S rRNA sequence was performed on the sequence data trimmed in the previous section using the microbial community analysis program “QIIME2”. The annotation program “sklearn” included in QIIME2 is used to annotate the ASV (OTU) sequences. […]

CCCc1nc2c(C)cc(-c3nc4ccccc4n3C)cc2n1Cc1ccc(-c2ccccc2C(=O)O)cc1 [Telmisartan]
Abundance: S24-7, —, — (line r298): 0
Abundance: Lachnospiraceae, —, — (line r300): 60
Abundance: Ruminococcaceae, Oscillospira, — (line r301): 30
Abundance: S24-7, —, — (line r302): 0
Abundance: —, —, — (line r303): 107
Abundance: Ruminococcaceae, Oscillospira, — (line r304): 9
Abundance: Bacteroidaceae, Bacteroides, acidifaciens (line r305): 0
Abundance: Bacteroidaceae, Bacteroides, acidifaciens (line r306): 11
Abundance: Lachnospiraceae, Dorea, — (line r307): 8
Abundance: Ruminococcaceae, Other, Other (line r308): 11
Abundance: Lachnospiraceae, —, — (line r309): 13
Abundance: Lachnospiraceae, —, — (line r310): 0
Abundance: S24-7, —, — (line r311): 1
Abundance: Lachnospiraceae, Other, Other (line r312): 0
Abundance: —, —, — (line r313): 0
Abundance: Ruminococcaceae, Oscillospira, — (line r314): 9
Abundance: Ruminococcaceae, Oscillospira, — (line r315): 0
Abundance: Lachnospiraceae, —, — (line r316): 19
Abundance: Erysipelotrichaceae, —, — (line r317): 0
Abundance: S24-7, —, — (line r318): 0
Abundance: Lachnospiraceae, —, — (line r319): 9
Abundance: Ruminococcaceae, Oscillospira, — (line r320): 0
Abundance: Lachnospiraceae, —, — (line r321): 14
Abundance: Other, Other, Other (line r322): 0
Abundance: F16, —, — (line r323): 0
Abundance: Christensenellaceae, —, — (line r324): 5
Abundance: Lachnospiraceae, Other, Other (line r325): 0
Abundance: Ruminococcaceae, Oscillospira, — (line r326): 0
Abundance: —, —, — (line r327): 0
Abundance: Ruminococcaceae, Other, Other (line r328): 0
Abundance: —, —, — (line r329): 0
Abundance: Lachnospiraceae, Other, Other (line r330): 0
Abundance: Other, Other, Other (line r331): 0
Abundance: Enterococcaceae, Vagococcus, — (line r332): 26
Abundance: Ruminococcaceae, Ruminococcus, — (line r333): 0
Abundance: Erysipelotrichaceae, Coprabacillus, — (line r334): 0
Abundance: Other, Other, Other (line r335): 0
Abundance: Ruminococcaceae, Oscillospira, — (line r336): 9
Abundance: Ruminococcaceae, Oscillospira, — (line r337): 0
Abundance: —, —, — (line r338): 0
Abundance: Lachnospiraceae, —, — (line r339): 0
Abundance: Ruminococcaceae, Oscillospira, — (line r340): 31
Abundance: Lachnospiraceae, Coprococcus, — (line r341): 0
Abundance: Ruminococcaceae, Other, Other (line r342): 5
Abundance: —, —, — (line r343): 0
Abundance: Erysipelotrichaceae, —, — (line r344): 2
Abundance: Rikenellaceae, —, — (line r345): 11
Abundance: —, —, — (line r346): 0
Abundance: —, —, — (line r347): 40
Abundance: —, —, — (line r348): 0
Abundance: Lachnospiraceae, —, — (line r349): 0
Abundance: —, —, — (line r350): 0
Abundance: Lachnospiraceae, Clostridium, Other (line r351): 28
Abundance: Erysipelotrichaceae, —, — (line r352): 0
Abundance: Streptococcaceae, Streptococcus, minor (line r353): 0
Abundance: Ruminococcaceae, Oscillospira, — (line r354): 0
Abundance: —, —, — (line r355): 0
Abundance: Lachnospiraceae, Other, Other (line r356): 0
Abundance: Other, Other, Other (line r357): 0
Abundance: —, —, — (line r358): 0
Abundance: —, —, — (line r359): 0
Abundance: Lachnospiraceae, —, — (line r362): 12
Abundance: Streptococcaceae, Streptococcus, — (line r363): 0
Abundance: S24-7, —, — (line r365): 0
Abundance: Other, Other, Other (line r367): 42
Abundance: [Mogibacteriaceae], —, — (line r368): 0
Abundance: Enterobacteriaceae, Enterobacter, Other (line r369): 0
Abundance: Erysipelotrichaceae, —, — (line r371): 19
Abundance: Aerococcaceae, Aerococcus, — (line r372): 39
Abundance: Ruminococcaceae, Oscillospira, — (line r373): 0
Abundance: Ruminococcaceae, Oscillospira, — (line r374): 12
Abundance: Other, Other, Other (line r375): 0
Abundance: Lachnospiraceae, Coprococcus, — (line r377): 0
Abundance: Other, Other, Other (line r378): 0
Abundance: Family Lachnospiraceae, Genus Other, Species Other (table row r380): 0
Abundance: Family Ruminococcaceae, Genus Oscillospira, Species — (table row r381): 0
Abundance: Family S24-7, Genus —, Species — (table row r382): 0
Abundance: Family Ruminococcaceae, Genus Ruminococcus, Species — (table row r383): 0
Abundance: Family Ruminococcaceae, Genus Oscillospira, Species — (table row r384): 0
Abundance: Family Ruminococcaceae, Genus Ruminococcus, Species — (table row r389): 0
Abundance: Family Lachnospiraceae, Genus —, Species — (table row r390): 0
Abundance: Family Ruminococcaceae, Genus Oscillospira, Species — (table row r391): 0
Abundance: Family Corynebacteriaceae, Genus Corynebacterium, Species stationis (table row r394): 0
Abundance: Family Ruminococcaceae, Genus Other, Species Other (table row r395): 0
Abundance: Family S24-7, Genus —, Species — (table row r396): 13
Abundance: Family Ruminococcaceae, Genus Oscillospira, Species — (table row r397): 26
Abundance: Family Ruminococcaceae, Genus Oscillospira, Species — (table row r398): 0
Abundance: Family Ruminococcaceae, Genus Ruminococcus, Species — (table row r399): 0
Abundance: Family [Mogibacteriaceae], Genus —, Species — (table row r400): 0
Abundance: Family Erysipelotrichaceae, Genus Coprobacillus, Species — (table row r401): 0
Abundance: Family Erysipelotrichaceae, Genus Clostridium, Species cocleatum (table row r402): 1
Abundance: Family S24-7, Genus —, Species — (table row r403): 0
Abundance: Family Coriobacteriaceae, Genus —, Species — (table row r404): 0
Abundance: Family Coriobacteriaceae, Genus Adlercreutzia, Species — (table row r405): 0
Abundance: Family Enterococcaceae, Genus Vagococcus, Species — (table row r407): 0
Abundance: Family [Mogibacteriaceae], Genus —, Species — (table row r409): 6
Abundance: Family S24-7, Genus —, Species — (table row r413): 11
Abundance: Family Ruminococcaceae, Genus Oscillospira, Species — (table row r414): 0
Abundance: Family Planococcaceae, Genus Sporosarcina, Species — (table row r415): 0
Abundance: Family Erysipelotrichaceae, Genus Other, Species Other (table row r417): 0
Abundance: Family Ruminococcaceae, Genus Ruminococcus, Species — (table row r419): 0
Abundance: Family Coriobacteriaceae, Genus Adlercreutzia, Species — (table row r423): 0
Abundance: Family Other, Genus Other, Species Other (table row r424): 0
Abundance: Family Ruminococcaceae, Genus Other, Species Other (table row r425): 0
